Reference: US9884832B2 (priority 2011, dated 2018)
Like-named read-outs stand apart in the source and are kept apart here.

Assays:
[1] = target: AM2 V27A (valine→alanine mutation at residue 27 in the M2 protein) (Influenza A virus, UniProt P0DOF5, V27A); assay type: cell-based, influenza virus A/Udorn/72
[2] = target: AM2 S31N (serine→asparagine mutation at residue 31 in the M2 protein) (Influenza A virus, UniProt P0DOF5, S31N); assay type: cell-based, influenza virus A/Udorn/72

Row | SMILES | V27A OOcyte Inhibition at 100 uM (%) ([1]; pH 5.5) | S31N OOcyte Inhibition at 100 uM (%) ([2]; pH 5.5) | V27A OOcyte Inhibition at 100 uM (%) [1] | S31N OOcyte Inhibition at 100 uM (%) [2]
1 | Cc1cc(CNC23CC4CC(CC(C4)C2)C3)ccc1O [Example 51, 4-(Adamantan-1-ylaminomethyl)-2-methyl-phenol] | B (key: (A)=31-95%; (B)=0-30%) | B (key: (A)=31-95%; (B)=0-30%) |  | 
2 | O=[N+]([O-])c1cc(CNC23CC4CC(CC(C4)C2)C3)ccc1O [Example 52, 4-(Adamantan-1-ylaminomethyl)-2-nitro-phenol] | A (key: (A)=31-95%; (B)=0-30%) | B (key: (A)=31-95%; (B)=0-30%) |  | 
3 | OCc1cc(Br)ccc1CNC12CC3CC(CC(C3)C1)C2 [Example 52a, [2-(Adamantan-1-ylaminomethyl)-5-bromo-phenyl]methanol] |  |  | B (key: (A)=31-95%; (B)=0-30%) | B (key: (A)=31-95%; (B)=0-30%)
4 | Oc1c(CNC23CC4CC(CC(C4)C2)C3)ccc2ccccc12 [Example 53a, 2-(Adamantan-1-ylaminomethyl)-naphthalen-1-ol] |  |  | B (key: (A)=31-95%; (B)=0-30%) | A (key: (A)=31-95%; (B)=0-30%)
5 | Fc1ccc(CNC23CC4CC(CC(C4)C2)C3)c(F)c1 [Example 54, Adamantan-1-yl-(2,4-difluoro-benzyl)-amine] | B (key: (A)=31-95%; (B)=0-30%) | B (key: (A)=31-95%; (B)=0-30%) |  | 
6 | CSc1ccc(CNC23CC4CC(CC(C4)C2)C3)c(SC)c1 [Example 55, Adamantan-1-yl-(2,4-bis-methylsulfanyl-benzyl)-amine] | B (key: (A)=31-95%; (B)=0-30%) | B (key: (A)=31-95%; (B)=0-30%) |  | 
7 | COc1cc(O)ccc1CNC12CC3CC(CC(C3)C1)C2 [Example 56, 4-(Adamantan-1-ylaminomethyl)-3-methoxy-phenol] | B (key: (A)=31-95%; (B)=0-30%) | B (key: (A)=31-95%; (B)=0-30%) |  | 
8 | c1ccc2nc(CNC34CC5CC(CC(C5)C3)C4)ccc2c1 [Example 56a, Adamantan-1-yl-quinolin-2-ylmethyl-amine] |  |  | B (key: (A)=31-95%; (B)=0-30%) | A (key: (A)=31-95%; (B)=0-30%)
9 | Oc1cc(OCc2ccccc2)ccc1CNC12CC3CC(CC(C3)C1)C2 [Example 57, 2-(Adamantan-1-ylaminomethyl)-5-benzyloxy-phenol] | B (key: (A)=31-95%; (B)=0-30%) | A (key: (A)=31-95%; (B)=0-30%) |  | 
10 | Oc1ccc(CNC23CC4CC(CC(C4)C2)C3)c(Cl)c1 [Example 58, 4-(Adamantan-1-ylaminomethyl)-3-chloro-phenol] | A (key: (A)=31-95%; (B)=0-30%) | B (key: (A)=31-95%; (B)=0-30%) |  | 
11 | COc1ccc(CNC23CC4CC(CC(C4)C2)C3)c(OC)c1 [Example 59, Adamantan-1-yl-(2,4-dimethoxy-benzyl)-amine] | B (key: (A)=31-95%; (B)=0-30%) | B (key: (A)=31-95%; (B)=0-30%) |  | 
12 | CC(=O)Oc1ccc(CNC23CC4CC(CC(C4)C2)C3)c(O)c1 [Example 60, Acetic acid 4-(adamantan-1-ylaminomethyl)-3-hydroxy-phenyl ester] | B (key: (A)=31-95%; (B)=0-30%) | A (key: (A)=31-95%; (B)=0-30%) |  | 
13 | c1coc(-c2ccc(CNC34CC5CC(CC(C5)C3)C4)cn2)c1 [Example 60a, N-((6-(furan-2-yl)pyridin-3-yl)methyl)adamantan-1-amine] |  |  | B (key: (A)=31-95%; (B)=0-30%) | A (key: (A)=31-95%; (B)=0-30%)
14 | COc1ccc(CNC23CC4CC(CC(C4)C2)C3)cc1O [Example 61, 5-(Adamantan-1-ylaminomethyl)-2-methoxy-phenol] | A (key: (A)=31-95%; (B)=0-30%) | B (key: (A)=31-95%; (B)=0-30%) |  | 
